In patent US20050222200A1, “AMIDE DERIVATIVES AS ION CHANNEL LIGANDS AND PHARMACEUTICAL COMPOSITIONS AND METHODS OF USING THE SAME” (Renovis, Inc., priority 2003, published 2005):

Target: VR1 (Rattus norvegicus, UniProt O35433)
Test: Calcium imaging assay: inhibition of capsaicin induced calcium influx in DRG neurons (Fura2, microscope)
Assay type: cell-based
Design: endogenous in cells; host or cells: DRG neurons
Conditions: capsaicin stimulation; class symbols per legend
Experimental: VR1 protein is a heat-gated cation channel that […] resulting in neuronal membrane depolarization and elevated intracellular calcium levels. Therefore the functional activity of compounds at the VR1 receptor may be determined by measuring changes in intracellular calcium levels in neurons such as the dorsal root ganglion.
DRG neurons were grown on PDL coated 96-well black-walled plates, in the presence of DMEM medium containing 5% Penstrep, 5% Glutamax, 200 μg/ml hygromycin, 5 μg/ml blasticide and 10% heat inactivated FBS. Prior to assay, cells were loaded with 5 μg/ml Fura2 in normal saline solution at 37° C for 40 minutes. Cells were then washed with normal saline to remove dye before commencement of the experiment.
The plated neurons were transferred into a chamber on the stage of a Nikon eclipse TE300 microscope after which neurons were allowed to attain a stable fluorescence for about 10 minutes before beginning the experiment. The assay consists of two stages, a pretreatment phase followed by a treatment phase. First, a solution of the test compound was added from a multivalve perfusion system to the cells for 1 minute (pretreatment). Immediately following, capsaicin (250 nM) was added in the presence of the test compound (treatment) for a specific period between 20 and 60 seconds.
Fura2 was excited at […] to indicate relative calcium ion concentration. Changes in wavelength measurements were made throughout the course of the experiment. The fluorescence ratio was calculated by dividing fluorescence measured at 340 nm by that at 380 nM. Data was collected using Intelligent Imaging’s Slidebook software. All compounds that inhibited capsaicin induced calcium influx greater than 75% were considered positives.
Fluorescence reflecting calcium ion influx is reduced.

Chain of VR1 (O35433 whole entry): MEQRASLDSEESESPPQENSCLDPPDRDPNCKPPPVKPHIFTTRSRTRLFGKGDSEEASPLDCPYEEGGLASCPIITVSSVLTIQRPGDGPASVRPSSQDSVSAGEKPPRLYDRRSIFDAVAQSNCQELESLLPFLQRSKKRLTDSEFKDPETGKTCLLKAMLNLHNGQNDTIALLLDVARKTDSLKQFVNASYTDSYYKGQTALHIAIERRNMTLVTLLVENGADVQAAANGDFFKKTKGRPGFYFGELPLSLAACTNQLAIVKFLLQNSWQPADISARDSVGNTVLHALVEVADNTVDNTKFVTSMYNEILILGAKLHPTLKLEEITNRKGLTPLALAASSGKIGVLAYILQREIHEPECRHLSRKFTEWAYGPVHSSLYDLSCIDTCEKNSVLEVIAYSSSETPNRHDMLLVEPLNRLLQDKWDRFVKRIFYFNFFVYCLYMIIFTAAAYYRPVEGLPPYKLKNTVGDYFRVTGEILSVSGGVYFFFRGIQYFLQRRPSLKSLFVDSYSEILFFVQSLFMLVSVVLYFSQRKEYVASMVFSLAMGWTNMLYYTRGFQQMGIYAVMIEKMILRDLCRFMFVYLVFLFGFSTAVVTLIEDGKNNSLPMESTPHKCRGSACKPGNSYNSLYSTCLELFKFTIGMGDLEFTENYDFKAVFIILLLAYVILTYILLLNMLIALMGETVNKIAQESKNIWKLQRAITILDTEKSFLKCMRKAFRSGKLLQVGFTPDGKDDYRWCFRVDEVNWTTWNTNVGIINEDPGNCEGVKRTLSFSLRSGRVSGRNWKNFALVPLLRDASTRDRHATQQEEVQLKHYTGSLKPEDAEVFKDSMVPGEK

Row | Structure (SMILES) | inhibition of calcium ion influx induced by capsaicin stimulation
1 | C/C(=C\C(C)(C)C)c1ccc(C(=O)NC2CCC(C(C)(C)C)CC2)cc1 (stereo not drawn) [Compound 287] | + (compound exhibited 0-25% inhibition of calcium ion influx induced by capsaicin stimulation)
2 | C/C(=C\C(C)(C)C)c1ccc(C(=O)NCCc2ccc(S(N)(=O)=O)cc2)cc1 [Compound 304] | + (compound exhibited 0-25% inhibition of calcium ion influx induced by capsaicin stimulation)
3 | COc1cc(CNC(=O)c2ccc(/C(C)=C/C(C)(C)C)cc2)cc(OC)c1OC [Compound 305] | + (compound exhibited 0-25% inhibition of calcium ion influx induced by capsaicin stimulation)
4 | C/C(=C\C(C)(C)C)c1ccc(C(=O)NCc2ccccn2)cc1 [Compound 308] | + (compound exhibited 0-25% inhibition of calcium ion influx induced by capsaicin stimulation)
5 | C/C(=C\C(C)(C)C)c1ccc(C(=O)Nc2ccccc2O)cc1 [Compound 313] | + (compound exhibited 0-25% inhibition of calcium ion influx induced by capsaicin stimulation)
6 | CCNC(=O)c1ccc(/C(C)=C/C(C)(C)C)cc1 [Compound 315] | + (compound exhibited 0-25% inhibition of calcium ion influx induced by capsaicin stimulation)
7 | C/C(=C\C(C)(C)C)c1ccc(C(=O)NCc2cccs2)cc1 [Compound 316] | ++ (compound exhibited 25-50% inhibition of calcium ion influx induced by capsaicin stimulation)
8 | C/C(=C\C(C)(C)C)c1ccc(C(=O)Nc2cc(C)ccn2)cc1 [Compound 324] | + (compound exhibited 0-25% inhibition of calcium ion influx induced by capsaicin stimulation)
9 | COc1ccc(NC(=O)c2ccc(/C(C)=C/C(C)(C)C)cc2)cc1Cl [Compound 330] | + (compound exhibited 0-25% inhibition of calcium ion influx induced by capsaicin stimulation)
10 | C/C(=C\C(C)(C)C)c1ccc(C(=O)Nc2ccc(C(F)(F)F)cc2)cc1 [Compound 331] | +++ (compound exhibited 50-75% inhibition of calcium ion influx induced by capsaicin stimulation)
11 | C/C(=C\C(C)(C)C)c1ccc(C(=O)Nc2cccc(C#N)c2)cc1 [Compound 332] | +++ (compound exhibited 50-75% inhibition of calcium ion influx induced by capsaicin stimulation)
12 | C/C(=C\C(C)(C)C)c1ccc(C(=O)Nc2ccc(C(C)(C)C)cc2)cc1 [Compound 334] | +++ (compound exhibited 50-75% inhibition of calcium ion influx induced by capsaicin stimulation)
13 | CCCCc1ccc(NC(=O)c2ccc(/C(C)=C/C(C)(C)C)cc2)cc1 [Compound 336] | ++ (compound exhibited 25-50% inhibition of calcium ion influx induced by capsaicin stimulation)
14 | COc1cc(NC(=O)c2ccc(/C(C)=C/C(C)(C)C)cc2)cc(C(F)(F)F)c1 [Compound 337] | + (compound exhibited 0-25% inhibition of calcium ion influx induced by capsaicin stimulation)
15 | C/C(=C\C(C)(C)C)c1ccc(C(=O)Nc2ccc(C)cc2C)cc1 [Compound 338] | + (compound exhibited 0-25% inhibition of calcium ion influx induced by capsaicin stimulation)
16 | C/C(=C\C(C)(C)C)c1ccc(C(=O)Nc2ccncn2)cc1 [Compound 341] | + (compound exhibited 0-25% inhibition of calcium ion influx induced by capsaicin stimulation)
17 | C/C(=C\C(C)(C)C)c1ccc(C(=O)Nc2ccc(C(F)(F)F)cn2)cc1 [Compound 344] | + (compound exhibited 0-25% inhibition of calcium ion influx induced by capsaicin stimulation)

Row | Structure (SMILES) | inhibition of calcium ion influx induced by capsaicin stimulation
18 | C/C(=C\C(C)(C)C)c1ccc(C(=O)Nc2ncc(C(F)(F)F)cc2Cl)cc1 [Compound 345] | + (compound exhibited 0-25% inhibition of calcium ion influx induced by capsaicin stimulation)
19 | C/C(=C\C(C)(C)C)c1ccc(C(=O)NCCc2cnc[nH]2)cc1 [Compound 356] | + (compound exhibited 0-25% inhibition of calcium ion influx induced by capsaicin stimulation)
20 | C/C(=C\C(C)(C)C)c1ccc(C(=O)NCc2cccnc2)cc1 [Compound 357] | + (compound exhibited 0-25% inhibition of calcium ion influx induced by capsaicin stimulation)
21 | C/C(=C/C(C)(C)C)c1ccc(C(=O)Nc2ccc3ccccc3c2)cc1 [Compound 358] | ++++ (compound exhibited 75% or greater inhibition of calcium ion influx induced by capsaicin stimulation)
22 | CC(C)(C)C#Cc1ccc(C(=O)Nc2ccc3c(c2)OCO3)cc1 [Compound 361] | ++++ (compound exhibited 75% or greater inhibition of calcium ion influx induced by capsaicin stimulation)
23 | CCN(CC)CCOC(=O)c1ccc(NC(=O)c2ccc(C#CC(C)(C)C)cc2)cc1 [Compound 363] | +++ (compound exhibited 50-75% inhibition of calcium ion influx induced by capsaicin stimulation)
24 | COc1cccc(NC(=O)c2ccc(C#CC(C)(C)C)cc2)c1 [Compound 364] | ++++ (compound exhibited 75% or greater inhibition of calcium ion influx induced by capsaicin stimulation)
25 | CC(C)(C)C#Cc1ccc(C(=O)Nc2ccc(Cl)cc2)cc1 [Compound 365] | + (compound exhibited 0-25% inhibition of calcium ion influx induced by capsaicin stimulation)
26 | COc1ccc(NC(=O)c2ccc(C#CC(C)(C)C)cc2)cc1Cl [Compound 366] | ++ (compound exhibited 25-50% inhibition of calcium ion influx induced by capsaicin stimulation)
27 | CC(C)(C)C#Cc1ccc(C(=O)Nc2ccc(C(F)(F)F)cc2)cc1 [Compound 367] | ++ (compound exhibited 25-50% inhibition of calcium ion influx induced by capsaicin stimulation)
28 | CC(C)(C)C#Cc1ccc(C(=O)Nc2ccc(Cl)c(C(F)(F)F)c2)cc1 [Compound 368] | ++++ (compound exhibited 75% or greater inhibition of calcium ion influx induced by capsaicin stimulation)
29 | COc1cc(NC(=O)c2ccc(C#CC(C)(C)C)cc2)cc(C(F)(F)F)c1 [Compound 372] | ++++ (compound exhibited 75% or greater inhibition of calcium ion influx induced by capsaicin stimulation)
30 | CC(C)(C)C#Cc1ccc(C(=O)Nc2ccc3c(c2)OCCO3)cc1 [Compound 373] | ++++ (compound exhibited 75% or greater inhibition of calcium ion influx induced by capsaicin stimulation)
31 | CC(C)(C)C#Cc1ccc(C(=O)Nc2cccc(C(F)(F)F)c2)cc1 [Compound 374] | ++++ (compound exhibited 75% or greater inhibition of calcium ion influx induced by capsaicin stimulation)
32 | CC(C)Oc1cccc(NC(=O)c2ccc(C#CC(C)(C)C)cc2)c1 [Compound 376] | +++ (compound exhibited 50-75% inhibition of calcium ion influx induced by capsaicin stimulation)
33 | CC(C)(C)C#Cc1ccc(C(=O)Nc2ccc(S(C)(=O)=O)cc2)cc1 [Compound 377] | ++++ (compound exhibited 75% or greater inhibition of calcium ion influx induced by capsaicin stimulation)
